Measurements reported in article PMC9931771, “Surufatinib plus toripalimab in patients with advanced solid tumors: a single-arm, open-label, phase 1 trial” (Journal of Cancer Research and Clinical Oncology, 2022).
Like-named read-outs stand apart in the source and are kept apart here.

How the values were obtained:
[1] = system: tumor-associated macrophages (TAMs); parameters: method as in Zhou et al. [2017]; conditions: preclinical studies; ref Zhou et al. [2017]; cited from earlier work
[2] = system: advanced well-differentiated extrapancreatic NET; parameters: method as in Xu et al. [2020a], [b]; conditions: phase 3 trial, ref Xu et al. [2020a], [b]; cited from earlier work
[3] = Phase 1 trial: pharmacokinetics of surufatinib and toripalimab (non-compartmental analysis); assay type: in vivo, human; conditions: for Surufatinib accumulation ratio of AUC0-τ: Cycle 2 Day 1 compared to Cycle 1 Day 1; for AUC / Cmax / Tmax / Vd/F / half-life: human, in vivo, oral; for AUC: read-out: Surufatinib AUC0-τ, geometric mean (CV%); for Cmax: read-out: Surufatinib Cmax, geometric mean (CV%); for Tmax: read-out: Surufatinib Tmax, median; for Vd/F: read-out: Surufatinib Vd/F, geometric mean (CV%); for half-life: read-out: Surufatinib t1/2, median (converted)
Excerpt: Blood samples were collected for PK evaluation at multiple time points on Cycle 1 Day 1, Cycle 2 Day 1, and Cycle 3 Day 1 for surufatinib and toripalimab, respectively.
DLT events were based on the DLT evaluable population, including patients who received at least 1 cycle of treatment and completed all safety assessments within the DLT assessment window or discontinued early due to DLT in the dose-escalation stage. All safety analyses, progression-free survival (PFS), and overall survival (OS) statistics were based on the safety population, including patients who received at least 1 dose of any study drug. All efficacy endpoints, excluding PFS and OS, were analyzed based on the efficacy evaluable population, including all patients who received at least 1 dose of any study drug and had tumor assessment at baseline and post drug administration prior to initiation of new anti-cancer therapies. The PK analysis was based on the PK population, which included all patients who received at least one dose of the study drug, had at least one PK sample collected and analyzed, and had no protocol deviation that might affect the PK data.
Two-sided 95% confidence interval (CI) of ORR and DCR were computed using the Exact (Clopper–Pearson) method. For time-to-event variables [PFS, OS, DoR (duration of response) and TTR (time to response)], median event time as well as the corresponding 95% CI were estimated using Kaplan–Meier method. All statistical analyses were performed using SAS 9.4 software. Adverse events (AEs) were graded by NCI CTCAE (Common Terminology Criteria for Adverse Events) v4.03, and coded using the Medical Dictionary for Regulatory Activities (MedDRA) v23.1. Treatment-related AEs (TRAEs) referred to AEs related to surufatinib or toripalimab, which were judged by the investigators. PK parameters were calculated by non-compartmental analysis using Phoenix WinNonlin v8.0.

[4] = system: advanced well-differentiated pancreatic NET; parameters: method as in Xu et al. [2020a], [b]; conditions: phase 3 trial, ref Xu et al. [2020a], [b]; cited from earlier work
[5] = surufatinib 200 mg + toripalimab 240 mg, C1D1, N 6
[6] = surufatinib 200 mg + toripalimab 240 mg, C1D1, footnote 1 (N 4)
[7] = surufatinib 200 mg + toripalimab 240 mg, C2D1, N 6
[8] = surufatinib 200 mg + toripalimab 240 mg, C3D1, N 3
[9] = surufatinib 200 mg + toripalimab 240 mg, C3D1, footnote 3 (N 2)
[10] = surufatinib 250 mg + toripalimab 240 mg, C1D1, N 12
[11] = surufatinib 250 mg + toripalimab 240 mg, C2D1, N 11
[12] = surufatinib 250 mg + toripalimab 240 mg, C3D1, N 9
[13] = surufatinib 250 mg + toripalimab 240 mg, C3D1, footnote 3 (N 8)
[14] = surufatinib 300 mg + toripalimab 240 mg, C1D1, N 12
[15] = surufatinib 300 mg + toripalimab 240 mg, C1D1, footnote 1 (N 10)
[16] = surufatinib 300 mg + toripalimab 240 mg, C2D1, N 10
[17] = surufatinib 300 mg + toripalimab 240 mg, C3D1, N 10

Compound: Cc1cc2cc(Oc3ccnc(Nc4cccc(CS(=O)(=O)NCCN(C)C)c4)n3)ccc2[nH]1 [surufatinib]
- Effect on M1 TAMs [1]: increased
- Effect on M2 tumor-associated macrophages (TAMs) [1]: decreased
- DCR [2]: 86.5%
- ORR [2]: 10.3%
- Surufatinib accumulation ratio of AUC0-τ ([3]; 200 mg QD): 1.8
- Surufatinib accumulation ratio of AUC0-τ ([3]; 250 mg QD): 2.0
- Surufatinib accumulation ratio of AUC0-τ ([3]; 300 mg QD): 2.1
- AUC ([3]; surufatinib 200 mg + toripalimab 240 mg, C1D1, N 4): 1840 ng·h/mL
- Cmax [3, 5]: 277 ng/mL
- Tmax [3, 5]: 1.98 h
- Vd/F [3, 6]: 926 L
- half-life [3, 6]: 4.49 h
- AUC ([3]; surufatinib 200 mg + toripalimab 240 mg, C2D1, N 3): 3010 ng·h/mL
- Cmax [3, 7]: 268 ng/mL
- Tmax [3, 7]: 2.97 h
- half-life ([3]; surufatinib 200 mg + toripalimab 240 mg, C2D1, footnote 4 (N 3)): 13.1 h
- AUC ([3]; surufatinib 200 mg + toripalimab 240 mg, C3D1, N 2): 2300 ng·h/mL
- Cmax [3, 8]: 239 ng/mL
- Tmax [3, 8]: 1.98 h
- Vd/F [3, 9]: 1080 L
- half-life [3, 9]: 10.1 h
- AUC [3, 10]: 1840 ng·h/mL
- Cmax [3, 10]: 289 ng/mL
- Tmax [3, 10]: 1.6 h
- Vd/F [3, 10]: 1660 L
- half-life [3, 10]: 11.1 h
- AUC [3, 11]: 3610 ng·h/mL
- Cmax [3, 11]: 407 ng/mL
- Tmax [3, 11]: 2 h
- half-life [3, 11]: 11.9 h
- AUC ([3]; surufatinib 250 mg + toripalimab 240 mg, C3D1, N 8): 2400 ng·h/mL
- Cmax [3, 12]: 310 ng/mL
- Tmax [3, 12]: 1.93 h
- Vd/F [3, 13]: 2540 L
- half-life [3, 13]: 15.6 h
- AUC ([3]; surufatinib 300 mg + toripalimab 240 mg, C1D1, N 10): 1880 ng·h/mL
- Cmax [3, 14]: 228 ng/mL
- Tmax [3, 14]: 2 h
- Vd/F [3, 15]: 1620 L
- half-life [3, 15]: 8.12 h
- AUC ([3]; surufatinib 300 mg + toripalimab 240 mg, C2D1, N 9): 3670 ng·h/mL
- Cmax [3, 16]: 281 ng/mL
- Tmax [3, 16]: 2.97 h
- half-life ([3]; surufatinib 300 mg + toripalimab 240 mg, C2D1, footnote 4 (N 8)): 14.4 h
- AUC [3, 17]: 3500 ng·h/mL
- Cmax [3, 17]: 361 ng/mL
- Tmax [3, 17]: 2 h
- Vd/F [3, 17]: 1510 L
- half-life [3, 17]: 12.2 h
- Surufatinib CL/F, geometric mean (CV%) [3, 6]: 89.5 (23.9) ^1 L/h
- Surufatinib CL/F, geometric mean (CV%) [3, 9]: 87.0 (24.3) ^3 L/h
- Surufatinib CL/F, geometric mean (CV%) [3, 10]: 110 (34.6) L/h
- Surufatinib CL/F, geometric mean (CV%) [3, 13]: 104 (45.0)^3 L/h
- Surufatinib CL/F, geometric mean (CV%) [3, 15]: 134 (30.7) ^1 L/h
- Surufatinib CL/F, geometric mean (CV%) [3, 17]: 84.3 (34.9) L/h
- DCR [4]: 80.8%
- ORR [4]: 19.2%
